US12521393B2, “Cytotoxicity targeting chimeras for CCR2-expressing cells” (GLAXOSMITHKLINE INTELLECTUAL PROPERTY DEVELOPMENT LIMITED, priority 2021, dated 2026)

Experiments:
[1] = test system: endogenous target monocytes in human PBMC; experiment: PBMC ex vivo monocyte depletion flow cytometry assay (Example 200); type: cell-based; conditions: with anti-cotinine antibody (SEQ ID NO: 11/12), 18-24 hours, EC50 in molar, read-out: Ex Vivo Depletion Assay pEC50 (converted)
Method in brief: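 Monocyte depletion is reported as pEC50, averaged or given individually across runs, and read by flow cytometry staining CD45, CD14 and CD4 with a viability dye. Compounds, diluted four-fold over 11 points from 1 mM DMSO stocks, were combined with 30 μg/mL Fc-enhanced anti-cotinine antibody and human PBMC, then incubated 18-24 h at 37° C.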

[2] = biological target: human alpha1 nicotinic acetylcholine (nACh) receptor (Homo sapiens, UniProt P02708); experiment: Nicotinic acetylcholine receptor antagonism assay, IONFlux automated patch clamp (Example 203); type: cell-based; conditions: for IC50: antagonism of ACh-stimulated human alpha1 nAChR current, patch clamp; for Emax at 100 µM: maximum percentage antagonism at maximum concentration tested 100 μM; for Emax at 10 µM: maximum percentage antagonism at maximum concentration tested 10 μM
human alpha1 nicotinic acetylcholine (nACh) receptor, sequence (P02708 21-457): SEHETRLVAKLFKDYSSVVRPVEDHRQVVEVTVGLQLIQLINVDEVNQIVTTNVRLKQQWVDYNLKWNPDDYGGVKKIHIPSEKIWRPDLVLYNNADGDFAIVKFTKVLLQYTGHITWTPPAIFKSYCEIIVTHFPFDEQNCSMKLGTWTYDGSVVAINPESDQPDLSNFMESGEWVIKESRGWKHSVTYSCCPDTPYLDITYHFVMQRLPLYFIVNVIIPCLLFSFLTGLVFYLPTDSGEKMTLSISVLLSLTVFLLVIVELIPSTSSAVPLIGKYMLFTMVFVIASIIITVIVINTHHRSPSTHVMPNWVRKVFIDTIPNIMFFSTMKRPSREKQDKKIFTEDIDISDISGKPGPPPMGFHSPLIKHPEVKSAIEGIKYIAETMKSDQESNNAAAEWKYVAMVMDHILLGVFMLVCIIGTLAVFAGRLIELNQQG
human alpha1 nicotinic acetylcholine (nACh) receptor, sequence (P11230 24-501 partner): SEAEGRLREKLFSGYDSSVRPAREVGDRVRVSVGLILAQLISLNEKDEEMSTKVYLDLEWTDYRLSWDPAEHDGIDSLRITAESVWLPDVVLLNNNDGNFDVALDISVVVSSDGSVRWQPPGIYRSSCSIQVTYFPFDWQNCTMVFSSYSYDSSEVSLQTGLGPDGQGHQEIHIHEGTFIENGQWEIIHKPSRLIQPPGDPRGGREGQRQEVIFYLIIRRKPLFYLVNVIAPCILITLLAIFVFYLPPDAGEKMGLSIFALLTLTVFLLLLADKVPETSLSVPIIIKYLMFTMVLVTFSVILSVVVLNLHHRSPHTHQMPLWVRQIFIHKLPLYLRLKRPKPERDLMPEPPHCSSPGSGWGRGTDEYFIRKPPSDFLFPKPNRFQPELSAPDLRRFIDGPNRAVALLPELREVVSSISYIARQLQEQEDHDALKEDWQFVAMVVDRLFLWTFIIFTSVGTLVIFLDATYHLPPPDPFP
human alpha1 nicotinic acetylcholine (nACh) receptor, sequence (Q07001 22-517 partner): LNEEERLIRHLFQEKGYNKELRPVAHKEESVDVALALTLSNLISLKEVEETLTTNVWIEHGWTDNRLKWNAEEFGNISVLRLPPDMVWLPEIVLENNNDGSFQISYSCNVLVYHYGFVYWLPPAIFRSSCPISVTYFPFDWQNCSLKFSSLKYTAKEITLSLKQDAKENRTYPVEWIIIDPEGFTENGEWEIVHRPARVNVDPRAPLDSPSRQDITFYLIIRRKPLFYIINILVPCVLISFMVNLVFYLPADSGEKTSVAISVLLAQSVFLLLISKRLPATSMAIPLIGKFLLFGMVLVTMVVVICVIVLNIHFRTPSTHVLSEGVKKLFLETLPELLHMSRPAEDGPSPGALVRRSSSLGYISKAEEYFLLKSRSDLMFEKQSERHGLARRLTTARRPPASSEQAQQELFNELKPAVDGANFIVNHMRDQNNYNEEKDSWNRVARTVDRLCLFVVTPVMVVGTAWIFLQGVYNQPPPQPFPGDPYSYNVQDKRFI
Method in brief: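 Cells expressing human α1 nAChR were incubated with a compound dose response (top 10 μM or 100 μM), then stimulated with ACh (10 mM), and peak current was read by automated patch clamp. % inhibition was taken against ACh-alone control, corrected for vehicle and run-down, and fit non-linearly for IC50; runs were averaged.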

Structure (SMILES) | EC50 [1] [nM] | IC50 [2] [nM] | Emax at 100 µM ([2]; read-out: Maximum Response) [%] | Emax at 10 µM ([2]; read-out: Maximum Response) [%] | Emax at 33.33 µM ([2]; maximum percentage antagonism at maximum concentration tested 33.33 μM, read-out: Maximum Response) [%] | Emax at 11.11 µM ([2]; maximum percentage antagonism at maximum concentration tested 11.11 μM, read-out: Maximum Response) [%]
CCN1C(=O)C[C@H](C(=O)NCCOCCOCCOCCC(=O)N[C@H]2CC[C@@H](C(=O)N[C@@H]3C[C@H](N(C)C(C)C)CC[C@@H]3N3CC[C@H](Nc4ncnc5ccc(C(F)(F)F)cc45)C3=O)CC2)[C@H]1c1cccnc1 [Example 34, (2S,3S)-1-ethyl-N-(2-(2-(2-(3-((cis-4-(((1R,2S,5R)-5-(isopropyl(methyl)amino)-2-((S)-2-oxo-3-((6-(trifluoromethyl)quinazolin-4-yl)amino)pyrrolidin-1-yl)cyclohexyl)carbamoyl)cyclohexyl)amino)-3-oxopropoxy)ethoxy)ethoxy)ethyl)-5-oxo-2-(pyridin-3-yl)pyrrolidine-3-carboxamide] | 1.58 | 28500 | 79.2 |  |  | 
CCN1C(=O)C[C@H](C(=O)NCCOCCOCCOCCC(=O)N[C@H]2CC[C@@H](C(=O)N[C@@H]3C[C@H](NC(C)(C)C)CC[C@@H]3N3CC[C@H](Nc4ncnc5ccc(C(F)(F)F)cc45)C3=O)CC2)[C@H]1c1cccnc1 [Example 35, (2S,3S)-N-(2-(2-(2-(3-(((1S,4s)-4-(((1R,2S,5R)-5-(tert-butylamino)-2-((S)-2-oxo-3-((6-(trifluoromethyl)quinazolin-4-yl)amino)pyrrolidin-1-yl)cyclohexyl)carbamoyl)cyclohexyl)amino)-3-oxopropoxy)ethoxy)ethoxy)ethyl)-1-ethyl-5-oxo-2-(pyridin-3-yl)pyrrolidine-3-carboxamide] | 0.631 | 89200 | 52.3 |  |  | 
CN1C(=O)C[C@H](C(=O)NCCOCCOCCOCCOCCOCCC(=O)N[C@@H]2C[C@H](NC(C)(C)C)CC[C@@H]2N2CC[C@H](Nc3ncnc4ccc(C(F)(F)F)cc34)C2=O)[C@H]1c1cccnc1 [Example 37, (2S,3S)-N-(18-(((1R,2S,5R)-5-(tert-Butylamino)-2-((S)-2-oxo-3-((6-(trifluoromethyl)quinazolin-4-yl)amino)pyrrolidin-1-yl)cyclohexyl)amino)-18-oxo-3,6,9,12,15-pentaoxaoctadecyl)-1-methyl-5-oxo-2-(pyridin-3-yl)pyrrolidine-3-carboxamide] | 5.01 | ≥ 10000 |  | 7.3 |  | 
CN1C(=O)C[C@H](C(=O)NCCOCCOCCOCCOCCOCCOCCC(=O)N[C@@H]2C[C@H](NC(C)(C)C)CC[C@@H]2N2CC[C@H](Nc3ncnc4ccc(C(F)(F)F)cc34)C2=O)[C@H]1c1cccnc1 [Example 38, (2S,3S)-N-(21-(((1R,2S,5R)-5-(tert-Butylamino)-2-((S)-2-oxo-3-((6-(trifluoromethyl)quinazolin-4-yl)amino)pyrrolidin-1-yl)cyclohexyl)amino)-21-oxo-3,6,9,12,15,18-hexaoxahenicosyl)-1-methyl-5-oxo-2-(pyridin-3-yl)pyrrolidine-3-carboxamide] | 1.58 | ≥ 10000 |  | -2.2 |  | 
CC(C)N(C)[C@@H]1CC[C@H](N2CC[C@H](Nc3ncnc4ccc(C(F)(F)F)cc34)C2=O)[C@H](NC(=O)CCOCCOCCOCCOCCOCCNC(=O)[C@H]2CC(=O)N(C)[C@@H]2c2cccnc2)C1 [Example 40, (2S,3S)-N-(18-(((1R,2S,5R)-5-(Isopropyl(methyl)amino)-2-((S)-2-oxo-3-((6-(trifluoromethyl)quinazolin-4-yl)amino)pyrrolidin-1-yl)cyclohexyl)amino)-18-oxo-3,6,9,12,15-pentaoxaoctadecyl)-1-methyl-5-oxo-2-(pyridin-3-yl)pyrrolidine-3-carboxamide] | 5.01 | ≥ 10000 |  | 24.7 |  | 
CC(C)N(C)[C@@H]1CC[C@H](N2CC[C@H](Nc3ncnc4ccc(C(F)(F)F)cc34)C2=O)[C@H](NC(=O)CCOCCOCCOCCOCCOCCOCCNC(=O)[C@H]2CC(=O)N(C)[C@@H]2c2cccnc2)C1 [Example 41, (2S,3S)-N-(21-(((1R,2S,5R)-5-(isopropyl(methyl)amino)-2-((S)-2-oxo-3-((6-(trifluoromethyl)quinazolin-4-yl)amino)pyrrolidin-1-yl)cyclohexyl)amino)-21-oxo-3,6,9,12,15,18-hexaoxahenicosyl)-1-methyl-5-oxo-2-(pyridin-3-yl)pyrrolidine-3-carboxamide] | 2.51 | ≥ 10000 |  | 20.1 |  | 
CC(C)N(C)[C@@H]1CC[C@H](N2CC[C@H](Nc3ncnc4ccc(C(F)(F)F)cc34)C2=O)[C@H](NC(=O)C2CCC(NC(=O)CCOCCNC(=O)CCOCCNC(=O)[C@H]3CC(=O)N(C)[C@@H]3c3cccnc3)CC2)C1 (stereo partly drawn) [Example 48, (2S,3S)-N-(2-(3-((2-(3-(((1R,4r)-4-(((1R,2S,5R)-5-(Isopropyl(methyl)amino)-2-((S)-2-oxo-3-((6-(trifluoromethyl)quinazolin-4-yl)amino)pyrrolidin-1-yl)cyclohexyl)carbamoyl)cyclohexyl)amino)-3-oxopropoxy)ethyl)amino)-3-oxopropoxy)ethyl)-1-methyl-5-oxo-2-(pyridin-3-yl)pyrrolidine-3-carboxamide] | 2 | 31800 | 77 |  |  | 
CC(C)N(C)[C@@H]1CC[C@H](N2CC[C@H](Nc3ncnc4ccc(C(F)(F)F)cc34)C2=O)[C@H](NC(=O)[C@H]2C[C@@H](NC(=O)CCOCCOCCNC(=O)CCNC(=O)[C@H]3CC(=O)N(C)[C@@H]3c3cccnc3)C2)C1 [Example 49, (2S,3S)-N-(3-((2-(2-(3-(((1S,3s)-3-(((1R,2S,5R)-5-(Isopropyl(methyl)amino)-2-((S)-2-oxo-3-((6-(trifluoromethyl)quinazolin-4-yl)amino)pyrrolidin-1-yl)cyclohexyl)carbamoyl)cyclobutyl)amino)-3-oxopropoxy)ethoxy)ethyl)amino)-3-oxopropyl)-1-methyl-5-oxo-2-(pyridin-3-yl)pyrrolidine-3-carboxamide] | 0.501 | 80300 | 56.7 |  |  | 
CC(C)N(C)[C@@H]1CC[C@H](N2CC[C@H](Nc3ncnc4ccc(C(F)(F)F)cc34)C2=O)[C@H](NC(=O)[C@H]2CC[C@@H](NC(=O)CCCO[C@H]3CC[C@H](NC(=O)CCNC(=O)[C@@H]4CC(=O)N(C)[C@H]4c4cccnc4)CC3)CC2)C1 [Example 52, (2S,3S)-N-(3-(((1R,4S)-4-(4-(((1S,4S)-4-(((1R,2S,5R)-5-(Isopropyl(methyl)amino)-2-((S)-2-oxo-3-((6-(trifluoromethyl)quinazolin-4-yl)amino)pyrrolidin-1-yl)cyclohexyl)carbamoyl)cyclohexyl)amino)-4-oxobutoxy)cyclohexyl)amino)-3-oxopropyl)-1-methyl-5-oxo-2-(pyridin-3-yl)pyrrolidine-3-carboxamide] | 0.2 | 33300 |  |  | 8.3 | 
CC(C)N(C)[C@@H]1CC[C@H](N2CC[C@H](Nc3ncnc4ccc(C(F)(F)F)cc34)C2=O)[C@H](NC(=O)[C@H]2CC[C@H](NC(=O)CCOC[C@H]3CC[C@H](COCCNC(=O)[C@H]4CC(=O)N(C)[C@@H]4c4cccnc4)CC3)CC2)C1 [Example 53, (2S,3S)-N-(2-(((1R,4S)-4-((3-(((1R,4R)-4-(((1R,2S,5R)-5-(Isopropyl(methyl)amino)-2-((S)-2-oxo-3-((6-(trifluoromethyl)quinazolin-4-yl)amino)pyrrolidin-1-yl)cyclohexyl)carbamoyl)cyclohexyl)amino)-3-oxopropoxy)methyl)cyclohexyl)methoxy)ethyl)-1-methyl-5-oxo-2-(pyridin-3-yl)pyrrolidine-3-carboxamide] | 0.631 | ≥ 11100 |  |  |  | 10
